Data taken from US10968196B2, “Substituted β-lapachones for treating cancer” (University of Pittsburgh—Of the Commonwealth System of …, priority 2015, dated 2021).
“And” between values parts separate entries of the source, which are not always exact repeats. Equal values may be shown once.

How the values were obtained:
[1] = test system: A549 cells; assay: Vacuole formation by phase contrast microscopy; type: cell-based; conditions: A549, 6 μM, 20 h, phase contrast microscopy (FIG. 3D)
Experimental: (§1) (3A) A549 non-small cell lung cancer cells were treated with XJB-OMe, 3-hydroxy-β-lapachone (14), or XJB-lapachone (18) at indicated concentrations for 24 h. Cell viability was determined by a CellTiter-Blue assay. Data represents the mean±SEM. (3B) PEO1 ovarian cancer cells, MDA-MB-231 breast cancer cells, and 983B melanoma cells were treated with XJB-lapachone (18) at indicated concentrations for 24 h. Cell viability was determined by a CellTiter-Blue assay. Data represents the mean±SEM. (3C) Equal numbers of A549 and IMR90 lung fibroblast cells were treated with 10 μM XJB-lapachone (18) for 4 h. XJB-lapachone was then washed away and cells were incubated in drug free media for 3 days. Cell viability was determined by a CellTiter-Blue assay. (3D) A549 cells were treated with XJB-OMe, 3-hydroxy-β-lapachone (14), or XJB-lapachone (18) at 6 μM concentrations for 20 h. The formation of vacuoles was examined by phase contrast microscopy. Representative images are shown. (3E) A549 cells were treated as described above. Apoptotic and necrotic cell death were determined by Annexin V and PI staining. Representative images are shown.
Microscopy: For vacuole imaging, A549 cells were plated in 12-well plate, treated with compounds and the phase contrast images were captured using a Nikon Eclipse TS100 inverted microscope. […]

[2] = test system: A549 cells; assay: Oxygen consumption rate, Seahorse extracellular flux analysis; type: cell-based; conditions: A549, 6 μM, 16 h, Seahorse (FIG. 4B)
Experimental: (§2) (4A) A549 cells were treated with XJB-OMe, 3-hydroxy-β-lapachone (14), or XJB-lapachone (18) at 6 μM for 16 h. The generation of ROS was determined by staining cells with MitoSox and DCFHDA. The fluorescence intensity was measured by flow cytometry. Data represents the mean±S.D. of triplicates. (4B) A549 cells were treated as described in A, and the oxygen consumption rate was determined by a Seahorse extracellular flux analyzer. […] (4C) A549 cells were treated as described in A, and mitochondria morphology was examined by electron microscopy. Representative images are shown. (4D) A549 cells were treated as described above. The expression of the autophagy marker LC3 was examined by western blot. β-actin was used as a loading control. Representative images are shown.
Extracellular flux (XF) analysis: Oxygen consumption rate (OCR) was measured using a Seahorse XF96 Extracellular Flux Analyzer (Seahorse Bioscience, North Billerica, Mass.), as previously described (Qian W, et al., Alterations in bioenergetics due to changes in mitochondrial DNA copy number. Methods 2010 51:452-457). Briefly, A549 cells were plated in a 6-well plate and treated with compounds for 16 h. After treatment, cells were trypsinized, counted, and plated at 40,000 cells per well in a XF96 microplate using Cell-Tak cell adhesive. OCR measurements were then performed using a XF96 analyzer.

[3] = test system: MDA-MB-231 rho0 cells; assay: Celltiter-blue cell viability in rho0 cells; type: cell-based; conditions: MDA-MB-231 rho0 cells (mtDNA depleted), increasing concentrations, 24 h (FIG. 8)
Experimental: MDA-MB-231 parental and rho0 cells (established by long-term culture of parental MDA-MB-231 cells in the presence of 50 ng/ml ethidium bromide) were treated with increasing concentrations of XJB-lapachone for 24 h. Cell viability was determined by Celltiter-blue.

[4] = test system: 983B melanoma cells; assay: CellTiter-Blue cell viability assay, 24 h treatment; type: cell-based; conditions: 983B cells, indicated concentrations, 24 h (FIG. 3B)
Experimental: as §1
(§3) Cell culture: A549 non-small cell lung cancer cells and MDA-MB-231 breast carcinoma cells were obtained from American Type Culture Collection (ATCC). Ovarian cancer cells PEO1 were kindly provided by Dr. Karyn J. Hansen (Magee-Womens Hospital of UPMC). 983B melanoma cells were kindly provided by Dr. Stergios J. Moschos (University of North Carolina). IMR90 normal lung fibroblast cells were kindly provided by Dr. Christopher Bakkenist (University of Pittsburgh Cancer Institute). Cells were cultured in either RPMI 1640 or DMEM media supplemented with 10% heat-inactivated fetal calf serum and 1% penicillin-streptomycin in 5% CO2 at 37° C.
(§4) Cell viability and apoptosis assays: Cell viability was determined using a CellTiter-Blue Cell Viability Assay (Promega, Madison, Wis.). The survival fractions were calculated after setting untreated control cells at 100%. An FITC Annexin V Apoptosis Detection Kit (BD PharMingen, San Diego, Calif.) was used to quantify apoptotic cells and necrotic cells, according to the manufacturer's instructions.
(§5) In order to investigate the cellular toxicity of 18 (XJB-lapachone), A549 nonsmall cell lung cancer cells were treated with various concentrations of XJB-lapachone for 24 h, and compared its effect with XJB-OMe (the mitochondrial targeting moiety) and unconjugated 3-hydroxy-β-lapachone (14). […] Furthermore, XJB-lapachone is also effective against other types of tumor cells, including PEO1 ovarian cancer cells, MDA-MB-231 breast cancer cells, and 983B melanoma cells (FIG. 3B). […] Tumor selectivity of β-lapachone, and whether the same is maintained after XJB conjugation, was examined. The cytotoxic effect of XJB-lapachone on A549 lung cancer and non-transformed human lung fibroblast cells IMR90 was determined by a cell growth/death assay.

[5] = test system: A549 non-small cell lung cancer cells; assay: as above; type: cell-based; conditions: various concentrations, CellTiter-Blue (FIG. 3A)
Experimental: as §1, §3, §4, §5

[6] = test system: MDA-MB-231 breast cancer cells; assay: as above; type: cell-based; conditions: MDA-MB-231 cells (NQO1 deficient), indicated concentrations, 24 h (FIG. 3B)
Experimental: as §1, §3, §4, §5

[7] = test system: PEO1 ovarian cancer cells; assay: as above; type: cell-based; conditions: indicated concentrations, 24 h (FIG. 3B)
Experimental: as §1, §3, §4, §5

[8] = test system: A549 lung cancer cells; assay: Cell growth/death assay (4 h exposure, wash-out, 3 days drug free); type: cell-based; conditions: A549, 10 μM for 4 h, washed, 3 days drug free media (FIG. 3C)
Experimental: as §1, with “The formation of vacuoles was examined by phase contrast microscopy. Representative images are shown. (3E) A549 cells were treated as described above.” left out, “Representative images are shown.” left out
as §4, with “instructions. […]” for “instructions.”

[9] = test system: IMR90 lung fibroblast cells; assay: as above; type: cell-based, human; conditions: IMR90, 10 μM for 4 h, washed, 3 days drug free media (FIG. 3C)
Experimental: as §1, with “The formation of vacuoles was examined by phase contrast microscopy. Representative images are shown. (3E) A549 cells were treated as described above.” left out, “Representative images are shown.” left out
as §4, with “instructions. […]” for “instructions.”

[10] = test system: A549 cells; assay: Annexin V and PI staining (apoptotic and necrotic cell death); type: cell-based; conditions: A549, 6 μM, 20 h, compared to unconjugated 3-hydroxy-β-lapachone (FIG. 3E)
Experimental: as §1, with “The formation of vacuoles was examined by phase contrast microscopy. Representative images are shown. (3E) A549 cells were treated as described above.” left out, “Representative images are shown.” left out
as §4

[11] = test system: A549 cells; assay: ROS generation by DCF-DA and MitoSox, flow cytometry; type: cell-based; conditions: for ROS generation (DCF) / mitochondrial ROS generation (MitoSox): A549, 6 μM, 16 h, flow cytometry (FIG. 4A)
Experimental: as §2
(§6) Determination of ROS generation: To measure intracellular generation of ROS, cells were incubated with 5 μM DCF-DA (Sigma) for 20 min at 37° C. after drug exposure. To measure mitochondrial generated ROS, cells were incubated with 5 μM of MitoSox (Invitrogen) for 20 min at 37° C. After wash with PBS, cells were trypsinized and suspended in HBSS containing 1% BSA. The fluorescence intensity of DCF and MitoSox were analyzed using an Accuri C6 flow cytometer (BD Accuri Cytometers, Ann Arbor, Mich.).
(§7) A549 non-small cell lung cancer cells (high NQO1) and MDA-MB-231 triple negative breast cancer cells (NQO1 deficient) were treated as indicated in FIG. 6. Mitochondrial ROS generation was determined by MitoSox followed by flow cytometry, essentially as described above.

[12] = test system: A549 cells; assay: Mitochondria morphology by transmission electron microscopy; type: cell-based; conditions: A549, 6 μM, 16 h, electron microscopy (FIG. 4C)
Experimental: as §2
Microscopy: For vacuole imaging, A549 cells were plated in 12-well plate, treated with compounds and the phase contrast images were captured using a Nikon Eclipse TS100 inverted microscope. For transmission electron microscopy analysis, A549 cells cultured in 6-well plate were fixed with 2.5% glutaraldehyde (Sigma-Aldrich) in PBS for 1 h at room temperature, and post-fixed for 1 h at 4° C. in 1% OsO4 with 1% K3Fe(CN)6. After dehydration and embedding, ultrathin (70 nm) sections were cut and mounted onto copper grids. […]

[13] = test system: LC3; assay: Western blot of autophagy marker LC3; type: cell-based; conditions: A549, western blot (FIG. 4D)
Experimental: as §2
Western blot analysis: Western blot was performed. Primary antibody LC3 was obtained from Novus (Littleton, Colo.) and β-actin was purchased from Sigma-Aldrich (St. Louis, Mo.).

[14] = test system: A549 non-small cell lung cancer cells; assay: Colony forming capacity (crystal violet) 10 days after drug treatment; type: cell-based
Experimental: Drug efficacy was determined by colony forming capacity using crystal violet 10 days after drug treatment.
A549 non-small cell lung cancer cells were treated with XJB-lapachone alone or combination with cisplatin or etoposide for 4 h at concentrations indicated in FIG. 10. Drug efficacy was determined by colony forming capacity 10 days after drug treatment.
A549 cells were treated with XJB-lapachone for 4 h. XJB-lapachone was then washed away before IR exposure (gamma-irradiation with a Shepherd Mark I Model 68 [^137Cs] irradiator) at 0, 1, 2, 4, and 6 Gy (grays). The number of colonies was counted 10 days after IR exposure (FIG. 11).

[15] = test system: MDA-MB-231 triple negative breast cancer cells (NQO1 deficient); assay: Mitochondrial ROS generation by MitoSox, flow cytometry; type: cell-based
Experimental: as §6, §7
Mitochondrial ROS generation was determined by MitoSox followed by flow cytometry. Left-shift of peak indicates decrease of ROS and right-shift of peak indicates increase of ROS.

[16] = test system: DNA damage signaling; assay: Western blot of DNA damage signaling activation; type: cell-based; conditions: A549, western blot after treatment (FIG. 9)
Experimental: Western blot was performed […] after treatment to examine the activation of DNA damage signaling. Antibodies used in the Western Blot were β-actin (AC-15) and ATM (MAT3-4G10/8) (from Sigma); Chk1 (2G1D5), phospho-Chk2 (Thr68) (C13C1), Chk2 (1C12) (from Cell Signaling Technology); phospho-Chk1 (Ser317) (from R&D systems); and phospho-ATM (S1981) (from Epitomics).

## CC1(C)OC2=C(CC1O)C(=O)C(=O)c1ccccc12 (stereo not drawn) [3-hydroxy-β-lapachone, reference compound]
[1]
  vacuolization (formation of vacuoles): not detected
[2]
  inhibition of mitochondrial respiration (oxygen consumption) by oligomycin after treatment: oligomycin was efficient in inhibiting the mitochondrial respiration
[3]
  induction of cell death in rho0 cells (cell viability): not

## CC(C)C[C@@H](/C=C/[C@H](Cc1ccccc1)C(=O)N1CCC[C@H]1C(=O)N[C@H](C(=O)N[C@@H](CCCNC(=O)OCc1ccccc1)C(=O)NCCC(=O)OC1CC2=C(OC1(C)C)c1ccccc1C(=O)C2=O)C(C)C)NC(=O)OC(C)(C)C (stereo partly drawn) [XJB-lapachone, 2,2-Dimethyl-5,6-dioxo-3,4,5,6-tetrahydro-2H-benzo[h]chromen-3-yl 3-((S)-2-((S)-2-((S)-1-((2S,5S,E)-2-benzyl-5-((tert-butoxycarbonyl)amino)-7-methyloct-3-enoyl)pyrrolidine-2-carboxamido)-3-methylbutanamido)-5-(((benzyloxy)carbonyl)amino)pentanamido) propanoate]
[4]
  cell viability: effective
[5]; listed as XJB-Lapachone
  cell viability / cytotoxic effect: superior compared to unconjugated β-lapachone
[5]; listed as XJBLapachone
  cell viability / cytotoxic effect: reduced cell viability in a dose dependent manner
[6]
  cell viability: effective
[7]
  cell viability: effective
[8]
  cell viability after four-hour exposure: significantly reduced the viability
[9]
  cell viability after four-hour exposure (toxic effect on non-transformed cells): toxic effect was less prominent
[1]
  vacuolization (formation of vacuoles): extensive vacuolization
[10]
  annexin V positive cells (apoptosis): more annexin V positive cells were induced
[11]; A549 (high NQO1) (FIG. 6)
  mitochondrial ROS generation (MitoSox), dose and time dependence: Induces Mitochondrial ROS Generation in a Dose and Time Dependent Manner
[11]
  ROS generation (DCF): dramatic increase of ROS generation
  mitochondrial ROS generation (MitoSox): dramatic increase of ROS generation
[11]; listed as 18
  ROS generation (DCF): stronger than unconjugated 3-hydroxy-β-lapachone
  mitochondrial ROS generation (MitoSox): stronger than unconjugated 3-hydroxy-β-lapachone
[2]
  inhibition of mitochondrial respiration (oxygen consumption) by oligomycin after treatment: can no longer be inhibited by oligomycin
[12]
  mitochondria morphology: onion skin-like structures of mitochondria were observed
[13]
  increase in LC3-II immunoblot signal: increase in an LC3-II immunoblot signal was observed
[14]; A549, 4 h, alone or combination with cisplatin or etoposide, 10 days (FIG. 10)
  colony forming capacity in combination with cisplatin or etoposide: enhances the effect of DNA-damaging anticancer agents
[14]; A549, 4 h treatment, colonies 10 days after (FIG. 5)
  treatment efficacy by colony forming capacity: Higher Treatment Efficacy as Compared to Unconjugated Beta-Lapachone
[14]; A549, 4 h treatment, washed, IR 0-6 Gy, colonies counted 10 days after (FIG. 11)
  number of colonies in combination with ionizing radiation: Synergistic Effect
[15]; MDA-MB-231 (NQO1 deficient) (FIG. 6)
  mitochondrial ROS generation (MitoSox), dose and time dependence: Induces Mitochondrial ROS Generation in a Dose and Time Dependent Manner
[15]; MDA-MB-231, 2 h, high concentration (FIG. 7)
  mitochondrial ROS levels at high concentration: Increases Mitochondrial ROS
[15]; MDA-MB-231, 2 h, low concentration (FIG. 7)
  mitochondrial ROS levels at low concentration: Reduces Mitochondrial ROS Levels
[15]; as described in the examples
  concentration at which ROS decreased: ≤ 1 µM
  concentration that increases ROS production in the mitochondria: > 1.0 µM and > 2.0 µM
[3]
  induction of cell death in rho0 cells (cell viability): effective in inducing cell death in rho0 cells
[16]
  activation of DNA damage signaling (DNA damage): induces DNA damage
